Data reported in patent publication US20260053834A1, “COVALENT MODIFIERS OF AKT1 AND USES THEREOF” (Terremoto Biosciences, Inc., priority 2023, published 2026).

Legend:
[1] = target: T1, AKT1 E17K (Homo sapiens, UniProt P31749, E17K); assay: Live cell target engagement by NanoBRET competitive probe displacement, AKT1 E17K; assay type: binding; settings: transfected HEK293 cells, 2 h at 37° C., read-out: AKT1 E17K IC50: GeoMean IC50
T1 construct: expressed in transfected cells; host or cells: HEK293

[2] = target: T2, AKT2 (Homo sapiens, UniProt P31751); assay: Live cell target engagement by NanoBRET competitive probe displacement, AKT2; assay type: binding; settings: transfected HEK293 cells, 2 h at 37° C., read-out: AKT2 IC50: GeoMean IC50
T2 construct: expressed in transfected cells; host or cells: HEK293

[3] = target: T3, AKT1 WT (Homo sapiens, UniProt P31749); assay: Live cell target engagement by NanoBRET competitive probe displacement, AKT1 WT; assay type: binding; settings: transfected HEK293 cells, 2 h at 37° C., read-out: AKT1 WT IC50: GeoMean IC50
T3 construct: expressed in transfected cells; host or cells: HEK293

[4] = tested on: LAPC4 prostate cancer cells, which express the AKT1 E17K allele; assay: Antiproliferative effects in LAPC4 cells (CellTiter Glo, 72 h); assay type: cell-based; settings: Homo sapiens, LAPC4, 72 h, read-out: LAPC4 proliferation IC50: GeoMean IC50
Outline: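 Cells grown in IMDM with 12% FBS, seeded at 1,000 cells/well and treated with compound dilutions in DMSO for 72 h. Intracellular ATP read by luminescence. IC50 from a log(inhibitor) vs. response Hill fit.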

T1 sequence (P31749 whole entry E17K): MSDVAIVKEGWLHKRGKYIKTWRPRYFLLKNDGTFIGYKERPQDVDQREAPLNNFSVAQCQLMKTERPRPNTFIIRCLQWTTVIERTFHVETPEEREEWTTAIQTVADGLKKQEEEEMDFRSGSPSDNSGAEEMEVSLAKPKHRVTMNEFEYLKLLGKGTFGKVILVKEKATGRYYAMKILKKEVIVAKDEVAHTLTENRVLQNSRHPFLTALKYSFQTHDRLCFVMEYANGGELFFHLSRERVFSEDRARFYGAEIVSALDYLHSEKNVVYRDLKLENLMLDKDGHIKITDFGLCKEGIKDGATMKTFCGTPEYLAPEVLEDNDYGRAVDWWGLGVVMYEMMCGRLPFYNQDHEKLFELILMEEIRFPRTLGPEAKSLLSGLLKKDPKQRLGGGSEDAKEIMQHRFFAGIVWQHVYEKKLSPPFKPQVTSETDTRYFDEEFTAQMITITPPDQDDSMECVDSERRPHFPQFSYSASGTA
T3 sequence (P31749 whole entry): as the sequence (P31749 whole entry E17K) above, with K17E counted along it
T2 sequence (P31751 whole entry): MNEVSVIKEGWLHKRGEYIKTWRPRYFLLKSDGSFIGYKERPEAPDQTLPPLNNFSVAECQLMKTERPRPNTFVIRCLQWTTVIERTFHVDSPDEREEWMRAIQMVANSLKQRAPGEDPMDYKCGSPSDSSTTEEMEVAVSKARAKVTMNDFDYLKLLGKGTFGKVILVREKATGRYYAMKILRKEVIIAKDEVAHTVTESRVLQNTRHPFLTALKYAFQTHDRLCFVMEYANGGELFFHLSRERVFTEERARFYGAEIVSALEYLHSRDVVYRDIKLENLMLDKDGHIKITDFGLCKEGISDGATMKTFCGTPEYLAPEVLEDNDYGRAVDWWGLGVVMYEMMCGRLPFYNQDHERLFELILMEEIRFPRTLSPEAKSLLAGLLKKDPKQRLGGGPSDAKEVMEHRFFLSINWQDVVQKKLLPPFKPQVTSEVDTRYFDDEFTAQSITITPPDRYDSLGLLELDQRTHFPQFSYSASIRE

Row | IC50 [1] | IC50 [2] | IC50 [3] | IC50 [4] | SMILES
1 | 10 to 100 nM | 100 to 2000 nM | 10 to 100 nM | 10 to 100 nM | CN(C)c1ccn(-c2ccc3nc(-c4cccnc4N)n(-c4ccc5c(c4)CC[C@@H]5NC(=O)c4ccc(O)c(C=O)c4)c3n2)n1 [Example 114, (S)—N-(5-(2-(2-aminopyridin-3-yl)-5-(3-(dimethylamino)-1H-pyrazol-1-yl)-3H-imidazo[4,5-b]pyridin-3-yl)-2,3-dihydro-1H-inden-1-yl)-3-formyl-4-hydroxybenzamide]
2 | 10 to 100 nM | 100 to 2000 nM | 10 to 100 nM | 100 to 2000 nM | Nc1ncccc1-c1nc2ccc(-n3ccc(C(F)F)n3)nc2n1-c1ccc2c(c1)CC[C@@H]2NC(=O)c1ccc(O)c(C=O)c1 [Example 116, (S)—N-(5-(2-(2-aminopyridin-3-yl)-5-(3-(difluoromethyl)-1H-pyrazol-1-yl)-3H-imidazo[4,5-b]pyridin-3-yl)-2,3-dihydro-1H-inden-1-yl)-3-formyl-4-hydroxybenzamide]
3 | 10 to 100 nM | 100 to 2000 nM | 10 to 100 nM | 10 to 100 nM | Nc1ncccc1-c1nc2ccc(-n3ccc(-n4cccn4)n3)nc2n1-c1ccc2c(c1)CC[C@@H]2NC(=O)c1ccc(O)c(C=O)c1 [Example 117, (S)—N-(5-(5-(1′H-[1,3′-bipyrazol]-1′-yl)-2-(2-aminopyridin-3-yl)-3H-imidazo[4,5-b]pyridin-3-yl)-2,3-dihydro-1H-inden-1-yl)-3-formyl-4-hydroxybenzamide]
4 | < 10 nM | 100 to 2000 nM | 10 to 100 nM | 10 to 100 nM | C#Cc1ccn(-c2ccc3nc(-c4cccnc4N)n(-c4ccc5c(c4)CC[C@@H]5NC(=O)c4ccc(O)c(C=O)c4)c3n2)n1 [Example 119, N-[(1S)-5-[2-(2-aminopyridin-3-yl)-5-(3-ethynylpyrazol-1-yl)imidazo[4,5-b]pyridin-3-yl]-2,3-dihydro-1H-inden-1-yl]-3-formyl-4-hydroxybenzamide]
5 | < 10 nM | 100 to 2000 nM | 10 to 100 nM | 10 to 100 nM | Cn1ncc(-c2ccc3nc(-c4cccnc4N)n(-c4ccc5c(c4)CC[C@@H]5NC(=O)c4ccc(O)c(C=O)c4)c3n2)n1 [Example 120, N-[(1S)-5-[2-(2-aminopyridin-3-yl)-5-(2-methyl-1,2,3-triazol-4-yl)imidazo[4,5-b]pyridin-3-yl]-2,3-dihydro-1H-inden-1-yl]-3-formyl-4-hydroxybenzamide]
6 | < 10 nM | 100 to 2000 nM | 10 to 100 nM | 10 to 100 nM | Nc1ncccc1-c1nc2ccc(-c3ncco3)nc2n1-c1ccc2c(c1)CC[C@@H]2NC(=O)c1ccc(O)c(C=O)c1 [Example 121, (S)—N-(5-(2-(2-aminopyridin-3-yl)-5-(oxazol-2-yl)-3H-imidazo[4,5-b]pyridin-3-yl)-2,3-dihydro-1H-inden-1-yl)-3-formyl-4-hydroxybenzamide]
7 | < 10 nM | 10 to 100 nM | 10 to 100 nM | 10 to 100 nM | Nc1ncccc1-c1nc2ccc(-n3cccn3)nc2n1-c1ccc2c(c1)CC[C@@H]2NC(=O)c1cc(C=O)c(O)c(Cl)c1F [Example 123, (S)—N-(5-(2-(2-aminopyridin-3-yl)-5-(1H-pyrazol-1-yl)-3H-imidazo[4,5-b]pyridin-3-yl)-2,3-dihydro-1H-inden-1-yl)-3-chloro-2-fluoro-5-formyl-4-hydroxybenzamide]
8 | 10 to 100 nM | 100 to 2000 nM | 10 to 100 nM | 10 to 100 nM | CSc1ccn(-c2ccc3nc(-c4cccnc4N)n(-c4ccc5c(c4)CC[C@@H]5NC(=O)c4ccc(O)c(C=O)c4)c3n2)n1 [Example 124, N-[(1S)-5-[2-(2-aminopyridin-3-yl)-5-[3-(methylsulfanyl)pyrazol-1-yl]imidazo[4,5-b]pyridin-3-yl]-2,3-dihydro-1H-inden-1-yl]-3-formyl-4-hydroxybenzamide]
9 | < 10 nM | 100 to 2000 nM | 10 to 100 nM | 10 to 100 nM | COCc1ccn(-c2ccc3nc(-c4cccnc4N)n(-c4ccc5c(c4)CC[C@@H]5NC(=O)c4ccc(O)c(C=O)c4)c3n2)n1 [Example 126, N-[(1S)-5-[2-(2-aminopyridin-3-yl)-5-[3-(methoxymethyl)pyrazol-1-yl]imidazo[4,5-b]pyridin-3-yl]-2,3-dihydro-1H-inden-1-yl]-3-formyl-4-hydroxybenzamide]
10 | 10 to 100 nM | 100 to 2000 nM | 10 to 100 nM | 10 to 100 nM | Nc1ncccc1-c1nc2ccc(-n3ccc(CO)n3)nc2n1-c1ccc2c(c1)CC[C@@H]2NC(=O)c1ccc(O)c(C=O)c1 [Example 127, (S)—N-(5-(2-(2-aminopyridin-3-yl)-5-(3-(hydroxymethyl)-1H-pyrazol-1-yl)-3H-imidazo[4,5-b]pyridin-3-yl)-2,3-dihydro-1H-inden-1-yl)-3-formyl-4-hydroxybenzamide]
11 | 10 to 100 nM | 100 to 2000 nM | 10 to 100 nM | 100 to 2000 nM | Cc1cc(C)n(-c2ccc3nc(-c4cccnc4N)n(-c4ccc5c(c4)CC[C@@H]5NC(=O)c4ccc(O)c(C=O)c4)c3n2)n1 [Example 129, N-[(1S)-5-[2-(2-aminopyridin-3-yl)-5-(3,5-dimethylpyrazol-1-yl)imidazo[4,5-b]pyridin-3-yl]-2,3-dihydro-1H-inden-1-yl]-3-formyl-4-hydroxybenzamide]
12 | 10 to 100 nM | 10 to 100 nM | 10 to 100 nM | 10 to 100 nM | Cc1cc(-n2cccn2)nc2c1nc(-c1cccnc1N)n2-c1ccc2c(c1)CC[C@@H]2NC(=O)c1ccc(O)c(C=O)c1 [Example 131, (S)—N-(5-(2-(2-aminopyridin-3-yl)-7-methyl-5-(1H-pyrazol-1-yl)-3H-imidazo[4,5-b]pyridin-3-yl)-2,3-dihydro-1H-inden-1-yl)-3-formyl-4-hydroxybenzamide]

Continued, compound first:

Row | SMILES | IC50 [1] | IC50 [2] | IC50 [3] | IC50 [4]
13 | Nc1ncccc1-c1nc2ccc(-c3ccn(C(F)F)n3)nc2n1-c1ccc2c(c1)CC[C@@H]2NC(=O)c1ccc(O)c(C=O)c1 [Example 113, N-[(1S)-5-[2-(2-aminopyridin-3-yl)-5-[1-(difluoromethyl)pyrazol3-yl]imidazo [4,5-b]pyridin-3-yl]-2,3-dihydro-1H-inden-1-yl]-3-formyl-4-hydroxybenzamide] | < 10 nM | 100 to 2000 nM | 10 to 100 nM | 10 to 100 nM
14 | Nc1ncccc1-c1nc2ccc(-n3nccn3)nc2n1-c1ccc2c(c1)CC[C@@H]2NC(=O)c1cc(F)c(O)c(C=O)c1 [Example 115, N-[(1S)-5-[2-(2-aminopyridin-3-yl)-5-(1,2,3-triazol-2-yl)imidazo[4,5-b]pyridin-3-yl]-2,3-dihydro-1H-inden-1-yl]-3-fluoro-5-formyl-4-hydroxybenzamide] | 10 to 100 nM | 100 to 2000 nM | 10 to 100 nM | 10 to 100 nM
15 | Nc1ncccc1-c1nc2ccc(-n3nccn3)nc2n1-c1ccc2c(c1)CC[C@@H]2NC(=O)c1cc(C=O)c(O)c(F)c1F [Example 118, (S)—N-(5-(2-(2-aminopyridin-3-yl)-5-(2H-1,2,3-triazol-2-yl)-3H-imidazo[4,5-b]pyridin-3-yl)-2,3-dihydro-1H-inden-1-yl)-2,3-difluoro-5-formyl-4-hydroxybenzamide] | 10 to 100 nM | 100 to 2000 nM | 10 to 100 nM | 10 to 100 nM
16 | CN(C)C(=O)Nc1ccc(C(=O)N[C@H]2CCc3cc(-n4c(-c5cccnc5N)nc5ccc(-n6ccc(F)n6)nc54)ccc32)cc1C=O [Example 122, N-[(1S)-5-[2-(2-aminopyridin-3-yl)-5-(3-fluoropyrazol-1-yl)imidazo[4,5-b]pyridin-3-yl]-2,3-dihydro-1H-inden-1-yl]-4-[(dimethylcarbamoyl)amino]-3-formylbenzamide] | < 10 nM | 100 to 2000 nM | 10 to 100 nM | 10 to 100 nM
17 | Nc1ncccc1-c1nc2ccc(-n3ccc(F)n3)nc2n1-c1ccc2c(c1)CC[C@@H]2NC(=O)c1cc(C=O)c(O)c(F)c1F [Example 125, (S)—N-(5-(2-(2-aminopyridin-3-yl)-5-(3-fluoro-1H-pyrazol-1-yl)-3H-imidazo[4,5-b]pyridin-3-yl)-2,3-dihydro-1H-inden-1-yl)-2,3-difluoro-5-formyl-4-hydroxybenzamide] | < 10 nM | 100 to 2000 nM | 10 to 100 nM | 10 to 100 nM
18 | Nc1ncccc1-c1nc2ccc(-c3nccs3)nc2n1-c1ccc2c(c1)CC[C@@H]2NC(=O)c1cc(F)c(O)c(C=O)c1 [Example 130, N-[(1S)-5-[2-(2-aminopyridin-3-yl)-5-(1,3-thiazol-2-yl)imidazo[4,5-b]pyridin-3-yl]-2,3-dihydro-1H-inden-1-yl]-3-fluoro-5-formyl-4-hydroxybenzamide] | 10 to 100 nM | 100 to 2000 nM | 10 to 100 nM | 10 to 100 nM
19 | Cc1cnc(-c2ccc3nc(-c4cccnc4N)n(-c4ccc5c(c4)CC[C@@H]5NC(=O)c4ccc(O)c(C=O)c4)c3n2)s1 [Example 132, (S)—N-(5-(2-(2-aminopyridin-3-yl)-5-(5-methylthiazol-2-yl)-3H-imidazo[4,5-b]pyridin-3-yl)-2,3-dihydro-1H-inden-1-yl)-3-formyl-4-hydroxybenzamide] | < 10 nM | 100 to 2000 nM | 10 to 100 nM | 10 to 100 nM
20 | Cc1csc(-c2ccc3nc(-c4cccnc4N)n(-c4ccc5c(c4)CC[C@@H]5NC(=O)c4ccc(O)c(C=O)c4)c3n2)n1 [Example 133, (S)—N-(5-(2-(2-aminopyridin-3-yl)-5-(4-methylthiazol-2-yl)-3H-imidazo[4,5-b]pyridin-3-yl)-2,3-dihydro-1H-inden-1-yl)-3-formyl-4-hydroxybenzamide] | < 10 nM | 10 to 100 nM | < 10 nM | 10 to 100 nM
